# Columns and labels:
# C57/BL6 mice [1] = assay: Serum immunoglobulin isotyping assay (CBA isotyping kit); assay type: in vivo, mouse; conditions: mice injected with bavachin together with OVA vs OVA alone; FIG. 2
# Experimental: (§1) C57/BL6 mice were immunized with a mixture of OVA (10 μg) and bavachin (10 μg) or a mixture of OVA (10 μg) and bavachin (100 μg) by subcutaneous injection once every 1, 3, and 4 weeks. In this regard, those injected with OVA (10 μg) alone was used as a control.
# Antibody subclasses in the mouse sera collected in Example 3 were stained with CBA (Cytometric Bead Array) isotyping kit and analyzed by FAGS (FIG. 2).
# [2] = system: splenocytes and lymph node cells; assay: Cytokines secreted from splenocytes and lymph node cells by CBA; assay type: cell-based, mouse; conditions: cells from mice injected with bavachin together with OVA vs OVA alone; day 28; treated with OVA 48 hours; FIG. 4
# Experimental: as §1
# (§2) Briefly, at 28 days after the first immunization, lymph nodes and spleens were removed from 5 mice per the treated mouse group (0.5% CMC (CON), OVA, Bavachin […], OVA+Bavachin), and ground to isolate cells from the tissue capsule. The spleens were subjected to hemolysis by treatment with an RBC lysis buffer, and splenocytes were isolated.
# (§3) The isolated splenocytes and lymph node cells were dispensed in a 96-well-plate at a density of 1×10^6 cells/well, followed by treated with OVA for 48 hours. Thereafter, cell proliferation was measured by MTS (FIG. 3), and cytokines (IFN-γ, IL-2, IL-4, IL-6, IL-10, and TNF) secreted from the cells were measured by CBA (FIG. 4).
# C57/BL6 mice [3] = assay: Percentages of effector T cells in lymph node cells by FACS analysis; assay type: in vivo, mouse; conditions: mice injected with bavachin together with OVA vs OVA alone; FIG. 7
# Experimental: as §1, §2
# Further, percentages of CD44^+CD62L^−CD4 cells and CD44^+CD62L^−CD8 cells, which are effector T cells, were compared by performing FAGS analysis of the lymph node cells (FIG. 7).
# C57/BL6 mice [4] = assay: Percentages of CD4 and CD8 cells in splenocytes by FACS analysis; assay type: in vivo, mouse; conditions: mice injected with bavachin together with OVA vs OVA alone; FIG. 6
# Experimental: as §1, §2
# Therefore, percentages of CD4 cells and CD8 cells were compared by performing FAGS analysis of the splenocytes (FIG. 6).
# C57/BL6 mice [5] = assay: OVA-specific IgG antibody titer in mouse sera by ELISA; assay type: in vivo; conditions: mice injected s.c. with bavachin (10 or 100 μg) together with OVA (10 μg) vs OVA alone; sera at 28 and 42 days; FIG. 1
# Experimental: as §1
# At 28 days and 42 days after the first immunization in Example 2, mouse sera were collected, and the titers of antigen-specific IgG antibodies in the sera were measured by way of ELISA (FIG. 1). At this time, in the ELISA method, an OVA-coated plate was blocked, and then sera of a control group and an experimental group were incubated at various serial dilution rates. Thereafter, horseradish peroxidase-conjugated mouse-IgG and IgG1 antibodies were added, and a substrate was added and allowed to react, followed by measurement with an ELISA reader.
# [6] = system: splenocytes and lymph node cells; assay: Antigen-specific cell proliferation of splenocytes and lymph node cells by MTS; assay type: cell-based, mouse; conditions: cells from mice injected with bavachin together with OVA vs OVA alone; day 28; treated with OVA 48 hours; FIG. 3
# Experimental: as §1, §2, §3
# C57/BL6 mice [7] = assay: Total numbers of splenocytes and lymph node cells; assay type: in vivo, mouse; conditions: mice injected with bavachin together with OVA vs OVA alone; day 28; FIG. 5
# Experimental: as §1, §2
# The total numbers of the splenocytes and lymph node cells obtained in Example 5 were counted (FIG. 5).
compound,measurement,setting,value
CC(C)=CCc1cc2c(cc1O)O[C@H](c1ccc(O)cc1)CC2=O [bavachin],IgA immunoglobulin level in sera,C57/BL6 mice [1],relatively high levels
same,IgG1 immunoglobulin level in sera,C57/BL6 mice [1],relatively high levels
same,"levels of cytokines (IFN-γ, IL-2, IL-4, IL-6, IL-10, and TNF) secreted from lymph node cells",[2],relatively high levels
same,"levels of cytokines (IFN-γ, IL-2, IL-4, IL-6, IL-10, and TNF) secreted from splenocytes",[2],relatively high levels
same,percentages of effector T cells (CD44+CD62L−CD4 and CD44+CD62L−CD8) in lymph node cells,C57/BL6 mice [3],relatively high levels
same,percentage of CD4 cells in splenocytes,C57/BL6 mice [4],relatively high levels
same,percentage of CD8 cells in splenocytes,C57/BL6 mice [4],relatively high levels
same,OVA-specific antibody titers,C57/BL6 mice [5],significantly increased
same,cell proliferation ability of lymph node cells,[6],relatively excellent cell proliferation ability
same,cell proliferation ability of splenocytes,[6],relatively excellent cell proliferation ability
same,number of lymph node cells,C57/BL6 mice [7],relatively high levels
same,number of splenocytes,C57/BL6 mice [7],no significant difference
